Laboratory results published in US9695154B2, “Heteroaryl inhibitors of sumo activating enzyme” (MILLENNIUM PHARMACEUTICALS, INC., priority 2013, dated 2017).

Molecular target: T1, recombinant human SAE enzyme (Homo sapiens, UniProt Q9UBT2)
T1 sequence (Q9UBT2 1-640): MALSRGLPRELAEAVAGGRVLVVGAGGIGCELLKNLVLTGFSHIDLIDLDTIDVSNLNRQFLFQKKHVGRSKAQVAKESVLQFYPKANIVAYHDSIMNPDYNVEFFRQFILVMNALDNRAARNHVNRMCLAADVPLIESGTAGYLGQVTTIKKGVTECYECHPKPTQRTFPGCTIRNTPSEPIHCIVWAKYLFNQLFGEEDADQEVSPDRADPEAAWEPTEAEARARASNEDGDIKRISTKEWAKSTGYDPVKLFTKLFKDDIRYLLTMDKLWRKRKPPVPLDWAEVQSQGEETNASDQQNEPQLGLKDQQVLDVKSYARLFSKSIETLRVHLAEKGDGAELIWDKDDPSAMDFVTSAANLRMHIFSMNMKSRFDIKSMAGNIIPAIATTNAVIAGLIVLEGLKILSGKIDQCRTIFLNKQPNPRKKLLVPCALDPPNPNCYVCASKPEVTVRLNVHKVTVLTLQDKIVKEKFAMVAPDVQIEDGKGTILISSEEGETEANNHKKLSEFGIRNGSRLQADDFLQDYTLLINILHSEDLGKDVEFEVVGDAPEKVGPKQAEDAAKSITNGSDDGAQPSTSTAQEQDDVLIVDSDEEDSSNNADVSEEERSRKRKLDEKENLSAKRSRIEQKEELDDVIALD
T1 sequence (Q9UBE0 1-346 partner): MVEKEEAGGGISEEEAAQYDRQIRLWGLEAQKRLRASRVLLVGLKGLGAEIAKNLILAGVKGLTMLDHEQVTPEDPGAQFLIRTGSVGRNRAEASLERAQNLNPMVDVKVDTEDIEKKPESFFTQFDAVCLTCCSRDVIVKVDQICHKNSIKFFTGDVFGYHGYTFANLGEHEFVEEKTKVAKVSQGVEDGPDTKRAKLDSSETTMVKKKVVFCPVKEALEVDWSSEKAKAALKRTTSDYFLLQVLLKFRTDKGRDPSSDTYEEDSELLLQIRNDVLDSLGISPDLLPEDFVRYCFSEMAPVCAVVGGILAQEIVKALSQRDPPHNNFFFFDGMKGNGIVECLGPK
Assay: SAE HTRF Enzyme Assay
Format: biochemical
Settings: for IC50: class symbols A-C; for inhibition at 0.111 µM: compound concentration 0.111 μM, read-out: Percent Inhibition
How it was run: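 Recombinant human SAE (0.11 nM) transferred Sumo-Flag (0.125 μM) to Ubc9-GST (0.01 μM) with 0.5 μM ATP in HEPES pH 7.5, MgCl2, GSH, BSA; 105 min at 24° C. EDTA stop, Eu-cryptate anti-Flag and XL-APC anti-GST added, 2 h, then HTRF read. Values given as % inhibition at one concentration or IC50.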

Structure (SMILES) | IC50 [µM] | inhibition at 0.111 µM [%]
NS(=O)(=O)OC[C@H]1C[C@@H](Nc2ncncc2C(=O)c2ccn(Cc3ccc(C(F)(F)F)cc3)n2)[C@H](O)[C@@H]1O [Compound I-167, [(1R,2R,3S,4R)-2,3-dihydroxy-4-{[5-({1-[4-(trifluoromethyl)benzyl]-1H-pyrazol-3-yl}carbonyl)pyrimidin-4-yl]amino}cyclopentyl]methyl sulfamate] | < 0.01 | 98
NS(=O)(=O)OC[C@H]1C[C@@H](Nc2ncncc2C(=O)c2ccn(Cc3cc(C(F)(F)F)cc(C(F)(F)F)c3)c2)C[C@@H]1O [Compound I-168, [(1R,2S,4R)-4-{[5-({1-[3,5-Bis(trifluoromethyl)benzyl]-1H-pyrrol-3-yl}carbonyl)pyrimidin-4-yl]amino}-2-hydroxycyclopentyl]methylsulfamate] | < 0.01 | 94
Cc1cc(Cn2ccc(C(=O)c3cncnc3N[C@@H]3C[C@H](COS(N)(=O)=O)[C@@H](O)[C@H]3O)n2)no1 [Compound I-169, [(1R,2R,3S,4R)-2,3-dihydroxy-4-{[5-({1-[(5-methylisoxazol-3-yl)methyl]-1H-pyrazol-3-yl}carbonyl)pyrimidin-4-yl]amino}cyclopentyl]methyl sulfamate] | < 0.01 | 97
NS(=O)(=O)OC[C@H]1C[C@@H](Nc2ncncc2C(=O)c2cc(C(F)(F)F)n(Cc3cccc(Cl)c3)n2)C[C@@H]1O [Compound I-170, {(1R,2S,4R)-4-[(5-{[1-(3-Chlorobenzyl)-5-(trifluoromethyl)-1H-pyrazol-3-yl]carbonyl}pyrimidin-4-yl)amino]-2-hydroxycyclopentyl}methyl sulfamate] | < 0.01 | 97
NS(=O)(=O)OC[C@H]1C[C@@H](Nc2ncncc2C(=O)c2ccn(Cc3ccc(C(F)(F)F)cc3)n2)C[C@@H]1O [Compound I-171, [(1R,2S,4R)-2-hydroxy-4-{[5-({1-[4-(trifluoromethyl)benzyl]-1H-pyrazol-3-yl}carbonyl)pyrimidin-4-yl]amino}cyclopentyl]methyl sulfamate] | < 0.01 | 95
CC(C)Cn1ccc(C(=O)c2cncnc2N[C@@H]2C[C@H](COS(N)(=O)=O)[C@@H](O)[C@H]2O)n1 [Compound I-173, [(1R,2R,3S,4R)-2,3-dihydroxy-4-({5-[(1-isobutyl-1H-pyrazol-3-yl)carbonyl]pyrimidin-4-yl}amino)cyclopentyl]methyl sulfamate] | 0.01 to 0.1 | 71
NS(=O)(=O)OC[C@H]1C[C@@H](Nc2ccncc2C(=O)c2ccn(Cc3ccc(Cl)c(C(F)(F)F)c3)n2)C[C@@H]1O [Compound I-174, [(1R,2S,4R)-4-{[3-({1-[4-chloro-3-(trifluoromethyl)benzyl]-1H-pyrazol-3-yl}carbonyl)pyridin-4-yl]amino}-2-hydroxycyclopentyl]methyl sulfamate] | < 0.01 | 93
NS(=O)(=O)OC[C@H]1C[C@@H](Nc2ncncc2C(=O)c2ccn(Cc3cccc(Cl)c3)n2)[C@@H](F)[C@@H]1O [Compound I-176, {(1R,2R,3R,4R)-4-[(5-{[1-(3-chlorobenzyl)-1H-pyrazol-3-yl]carbonyl}pyrimidin-4-yl)amino]-3-fluoro-2-hydroxycyclopentyl}methyl sulfamate] | < 0.01 | 98
NS(=O)(=O)OC[C@H]1C[C@@H](Nc2ncncc2C(=O)c2ccn(Cc3cccc(Br)c3F)n2)[C@@H](F)[C@@H]1O [Compound I-177, ((1R,2R,3R,4R)-4-((5-(1-(3-Bromo-2-fluorobenzyl)-1H-pyrazole-3 carbonyl)pyrimidin-4-yl)amino)-3-fluoro-2-hydroxycyclopentyl)methyl sulfamate] | < 0.01 | 99
NS(=O)(=O)OC[C@H]1C[C@@H](Nc2ncncc2C(=O)c2ccn(Cc3ccc(F)c(I)c3)n2)[C@@H](F)[C@@H]1O [Compound I-178, {(1R,2R,3R,4R)-3-fluoro-4-[(5-{[1-(4-fluoro-3-iodobenzyl)-1H-pyrazol-3-yl]carbonyl}pyrimidin-4-yl)amino]-2-hydroxycyclopentyl}methyl sulfamate] | < 0.01 | 99
NS(=O)(=O)OC[C@H]1C[C@@H](Nc2ncncc2C(=O)c2ccn(Cc3ccc(Cl)c(Br)c3)n2)C[C@@H]1O [Compound I-179, {(1R,2S,4R)-4-[(5-{[1-(3-bromo-4-chlorobenzyl)-1H-pyrazol-3-yl]carbonyl}pyrimidin-4-yl)amino]-2-hydroxycyclopentyl}methyl sulfamate] | < 0.01 | > 99
NS(=O)(=O)OC[C@H]1C[C@@H](Nc2ncncc2C(=O)c2ccn(Cc3ccc(Cl)o3)n2)C[C@@H]1O [Compound I-180, [(1R,2S,4R)-4-{[5-({1-[(5-chloro-2-furyl)methyl]-1H-pyrazol-3-yl}carbonyl)pyrimidin-4-yl]amino}-2-hydroxycyclopentyl]methyl sulfamate] | < 0.01 | 99
NS(=O)(=O)OC[C@H]1C[C@@H](Nc2ncncc2C(=O)c2ccn(Cc3cc(C(F)(F)F)ccc3Cl)n2)[C@@H](F)[C@@H]1O [Compound I-181, [(1R,2R,3R,4R)-4-{[5-({1-[2-chloro-5-(trifluoromethyl)benzyl]-1H-pyrazol-3-yl}carbonyl)pyrimidin-4-yl]amino}-3-fluoro-2-hydroxycyclopentyl]methyl sulfamate] | < 0.01 | 94
NS(=O)(=O)OC[C@H]1C[C@@H](Nc2ncncc2C(=O)c2ccn(Cc3ccccc3C(F)(F)F)n2)[C@H](O)[C@@H]1O [Compound I-182, [(1R,2R,3S,4R)-2,3-dihydroxy-4-{[5-({1-[2-(trifluoromethyl)benzy1]-1H-pyrazol-3-yl}carbonyl)pyrimidin-4-yl]amino}cyclopentyl]methyl sulfamate] | < 0.01 | 96
NS(=O)(=O)OC[C@H]1C[C@@H](Nc2ncncc2C(=O)c2ccn(Cc3ccc(C(F)(F)F)s3)n2)C[C@@H]1O [Compound I-183, [(1R,2S,4R)-2-hydroxy-4-({5-[(1-{[5-(trifluoromethyl)-2-thienyl]methyl}-1H-pyrazol-3-yl)carbonyl]pyrimidin-4-yl}amino)cyclopentyl]methyl sulfamate] | < 0.01 | 96
NS(=O)(=O)OC[C@H]1C[C@@H](Nc2ncncc2C(=O)c2cc(Cl)n(Cc3cccc(C(F)(F)F)c3)c2)[C@@H](F)[C@@H]1O [Compound I-184, [(1R,2R,3R,4R)-4-{[5-({5-chloro-1-[3-(trifluoromethyl)benzyl]-1H-pyrrol-3-yl}carbonyl)pyrimidin-4-yl]amino}-3-fluoro-2-hydroxycyclopentyl]methyl sulfamate] | < 0.01 | 97
NS(=O)(=O)OC[C@H]1C[C@@H](Nc2ncncc2C(=O)c2ccn(Cc3ccc(F)cc3Cl)n2)C[C@@H]1O [Compound I-185, {(1R,2S,4R)-4-[(5-{[1-(2-chloro-4-fluorobenzyl)-1H-pyrazol-3-yl]carbonyl}pyrimidin-4-yl)amino]-2-hydroxycyclopentyl}methyl sulfamate] | < 0.01 | 91
Cc1cc(C(=O)c2cncnc2N[C@@H]2C[C@H](COS(N)(=O)=O)[C@@H](O)[C@@H]2F)nn1Cc1cccc(Br)c1 [Compound I-186, {(1R,2R,3R,4R)-4-[(5-{[1-(3-Bromobenzyl)-5-methyl-1H-pyrazol-3-yl]carbonyl}pyrimidin-4-yl)amino]-3-fluoro-2-hydroxycyclopentyl}methyl sulfamate] | < 0.01 | > 99
CCc1cc(C(=O)c2cncnc2N[C@@H]2C[C@H](COS(N)(=O)=O)[C@@H](O)[C@@H]2F)cn1Cc1cccc(Br)c1 [Compound I-187, {(1R,2R,3R,4R)-4-[(5-{[1-(3-Bromobenzyl)-5-ethyl-1H-pyrrol-3-yl]carbonyl}pyrimidin-4-yl)amino]-3-fluoro-2-hydroxycyclopentyl}methyl sulfamate] | < 0.01 | 99
COc1cccc(Cn2ccc(C(=O)c3cncnc3N[C@@H]3C[C@H](COS(N)(=O)=O)[C@@H](O)[C@@H]3F)c2)n1 [Compound I-188, [(1R,2R,3R,4R)-3-fluoro-2-hydroxy-4-{[5-({1-[(6-methoxypyridin-2-yl)methyl]-1H-pyrrol-3-yl}carbonyl)pyrimidin-4-yl]amino}cyclopentyl]methyl sulfamate] | < 0.01 | 98
